Data set [1] has as its target T1, leucine aminopeptidase from Leishmania donovani (LdLAP) (Leishmania donovani, UniProt A0A3S7WXR2).
T1 sequence (A0A3S7WXR2 1-565): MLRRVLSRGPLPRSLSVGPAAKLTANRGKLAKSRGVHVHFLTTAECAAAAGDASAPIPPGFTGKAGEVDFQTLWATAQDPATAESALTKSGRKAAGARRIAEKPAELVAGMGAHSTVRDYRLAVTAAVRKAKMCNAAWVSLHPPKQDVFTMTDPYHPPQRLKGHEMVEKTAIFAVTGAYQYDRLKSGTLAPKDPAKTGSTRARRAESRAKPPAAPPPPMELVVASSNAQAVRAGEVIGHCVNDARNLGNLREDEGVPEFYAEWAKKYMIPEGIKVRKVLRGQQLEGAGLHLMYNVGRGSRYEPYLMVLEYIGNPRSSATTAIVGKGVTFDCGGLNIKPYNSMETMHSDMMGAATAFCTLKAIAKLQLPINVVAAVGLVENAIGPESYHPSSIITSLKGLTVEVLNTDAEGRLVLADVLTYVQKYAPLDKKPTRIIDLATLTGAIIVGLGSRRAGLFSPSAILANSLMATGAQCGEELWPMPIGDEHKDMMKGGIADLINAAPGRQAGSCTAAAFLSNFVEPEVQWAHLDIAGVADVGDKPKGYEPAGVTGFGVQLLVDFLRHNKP
The data set is described as follows: Leu-AMC fluorogenic aminopeptidase assay with double-reciprocal plots. The format is biochemical.

Substrate in the data set “purified protein”: Cc1cc(=O)oc2cc(NC(=O)[C@@H](N)CC(C)C)ccc12
The data set is described as follows: purified protein. The conditions noted are these: Mn(II).

Take `CCCCC[C@H](CC(=O)NO)C(=O)N[C@H](C(=O)N1CCC[C@H]1CO)C(C)C` [actinonin]: in data set [1], the affinity corresponds to a Ki of 2.7 nM.
With `CC(C)C[C@H](NC(=O)[C@@H](O)[C@H](N)Cc1ccccc1)C(=O)O` [bestatin], the Ki (as a rule, a dissociation constant, usually derived from enzyme kinetics or from competition with a known ligand) in data set [1] turned out to be 4.38 nM.

B1: leucine aminopeptidase from Leishmania donovani (LdLAP) (Leishmania donovani) (protein)
chain: MLRRVLSRGPLPRSLSVGPAAKLTANRGKLAKSRGVHVHFLTTAECAAAAGDASAPIPPGFTGKAGEVDFQTLWATAQDPATAESALTKSGRKAAGARRIAEKPAELVAGMGAHSTVRDYRLAVTAAVRKAKMCNAAWVSLHPPKQDVFTMTDPYHPPQRLKGHEMVEKTAIFAVTGAYQYDRLKSGTLAPKDPAKTGSTRARRAESRAKPPAAPPPPMELVVASSNAQAVRAGEVIGHCVNDARNLGNLREDEGVPEFYAEWAKKYMIPEGIKVRKVLRGQQLEGAGLHLMYNVGRGSRYEPYLMVLEYIGNPRSSATTAIVGKGVTFDCGGLNIKPYNSMETMHSDMMGAATAFCTLKAIAKLQLPINVVAAVGLVENAIGPESYHPSSIITSLKGLTVEVLNTDAEGRLVLADVLTYVQKYAPLDKKPTRIIDLATLTGAIIVGLGSRRAGLFSPSAILANSLMATGAQCGEELWPMPIGDEHKDMMKGGIADLINAAPGRQAGSCTAAAFLSNFVEPEVQWAHLDIAGVADVGDKPKGYEPAGVTGFGVQLLVDFLRHNKP
For B1, in “purified protein”, the Km (as a rule, the substrate concentration at which the rate is half of its maximum) is 57.29 µM and the kcat/Km (commonly the second-order rate constant that governs catalysis at low substrate concentration) came to 5820 M⁻¹ s⁻¹.

The record behind these values is PMC8320071 (ACS Omega, 2021).
